Data taken from patent publication US20120028358A1, “METHOD FOR INCREASING RETROVIRAL INFECTIVITY” (priority 2010, published 2012).

Tested on: rat PMVEC
Test: Gamma-retroviral infection efficiency of PMVEC (percent fluorescent cells by FACS)
Assay type: cell-based
Details: 1 μmol/L; MMLV with ecotropic, amphotropic, VSV-G pantropic envelope
Method: Cell cultures: Phoenix Retroviral Expression System ecotropic and amphotropic packaging cells were purchased from Orbigen, Inc. (San Diego, Calif.). […] Rat pulmonary microvascular endothelial cells (PMVEC), were obtained from our cell culture core at the University of South Alabama (King J, et al. Structural and functional characteristics of lung macro and microvascular endothelial phenotypes. Microvascular Res. 2004, March, 67(2). 139-151). Human glioblastoma cells (U87MG), and human mammary carcinoma cells (T47D) were obtained from ATCC. All cells were cultured in DMEM, 10% FBS, 2 mmol L-Glutamine and used for experiments at passages 4-9. All cells were grown in humidified incubators at 37° C. in 5% CO2. Cells were harvested by 0.05% trypsin/0.53 mM EDTA digestion, washed, re-suspended in cultured medium and analyzed directly by FACScan in the University of South Alabama Flow Cytometry Core. For cell cycle analysis cellular DNA was stained with […] of propridium iodide for 20 minutes as described elsewhere (48) and then analyzed by FACScan.
Vectors and delivery systems: pBMN-GFP (Orbigen, Inc., San Diego, Calif.), a retroviral vector that expresses GFP driven by the MMLV's promoter in Phoenix and other cells was used. […]

CC#C[C@]1(O)CC[C@H]2[C@@H]3CCC4=CC(=O)CCC4=C3[C@@H](c3ccc(N(C)C)cc3)C[C@@]21C [mifepristone, 11-beta-(4-dimethylaminophenyl)-17-beta-hydroxy-17-alpha-(1-propynyl)-estra-4,9-dien-3-one]
Percentage of infected cells: doubled
